What was measured:
CWR22R [1] = test: Antitumor activity against human 22Rv1 cells xenografted in NOD/SCID mouse assessed as tumor growth inhibition at 5 mg/kg, ip administered five times a week for 2 weeks and measured two times per week; type: functional; settings: 22Rv1, 336 h, read-out: TGI
[2] = biological target: T1, Nuclear receptor ROR-gamma (Homo sapiens, UniProt P51449); test: Inhibition of Gal4-fused RORgamma LBD (unknown origin) expressed in HEK293T cells incubated for 48 hrs by luciferase based assay; type: cell-based
T1 sequence (P51449 whole entry): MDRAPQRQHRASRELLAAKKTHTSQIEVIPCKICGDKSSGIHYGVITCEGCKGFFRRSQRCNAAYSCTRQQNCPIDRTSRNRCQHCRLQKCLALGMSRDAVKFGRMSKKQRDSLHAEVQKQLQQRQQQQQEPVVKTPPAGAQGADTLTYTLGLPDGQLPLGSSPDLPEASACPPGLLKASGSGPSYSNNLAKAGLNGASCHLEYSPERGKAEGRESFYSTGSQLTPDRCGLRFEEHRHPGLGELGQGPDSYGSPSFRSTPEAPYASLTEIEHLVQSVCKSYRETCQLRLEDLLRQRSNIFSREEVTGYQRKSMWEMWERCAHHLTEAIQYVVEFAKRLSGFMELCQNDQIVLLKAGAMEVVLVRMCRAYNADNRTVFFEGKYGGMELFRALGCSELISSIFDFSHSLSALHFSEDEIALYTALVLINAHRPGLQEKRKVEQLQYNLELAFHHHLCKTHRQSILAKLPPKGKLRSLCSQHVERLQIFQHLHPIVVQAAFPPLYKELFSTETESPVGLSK

LNCaP = test: Antiproliferative activity against human LNCaP cells incubated for 4 days by CCK8 assay; settings: 96 h
CWR22R [3] = test: Antiproliferative activity against human 22Rv1 cells incubated for 4 days by CCK8 assay; settings: 22Rv1, 96 h
LNCaP C4-2B = test: Antiproliferative activity against human LNCaP C4-2B cells incubated for 4 days by CCK8 assay; settings: 96 h

Row | SMILES | IC50 [2] | other results
1 | CCS(=O)(=O)c1ccc(CC(=O)Nc2cc(Cl)c(-c3ccccc3OC(F)(F)F)c(Cl)c2)cc1 |  | inhibition in vivo at 5 mg/kg (CWR22R [1]): 31.1%
2 | C=CC(=O)Nc1ccccc1-c1ccc(NC(=O)Cc2ccc(S(=O)(=O)CC)cc2)cc1C(F)(F)F | 2.17 µM | IC50 (LNCaP): 1.77 µM; IC50 (CWR22R [3]): 2.56 µM; IC50 (LNCaP C4-2B): 1.1 µM
3 | CCS(=O)(=O)c1ccc(CC(=O)Nc2ccc(-c3ccccc3NC(=O)CCl)c(C)c2)cc1 | 2 µM | 
4 | C=CC(=O)Nc1ccccc1-c1ccc(NC(=O)Cc2cccc(C#N)c2)cc1C | 2.02 µM | 

More lines, in order of falling IC50 [2], values ahead:

Row | IC50 [2] | SMILES | other results
5 | 2.98 µM | CCC(=O)Nc1ccccc1-c1ccc(NC(=O)Cc2ccc(S(=O)(=O)CC)cc2)cc1C | 
6 | 1.23 µM | C=CC(=O)Nc1ccccc1-c1ccc(NC(=O)Cc2ccc(S(C)(=O)=O)cc2)cc1C | 
